Measured values taken from patent US20220096516A1, “OLIGONUCLEOTIDE MOLECULE AND APPLICATION THEREOF IN TUMOR THERAPY” (Ractigen Therapeutics, priority 2019, published 2022).
d = 2'-deoxy (DNA); r = 2'-OH (RNA)

Test system: LHPP gene
Assay: High-throughput screening of saRNAs targeting LHPP promoter: LHPP mRNA by one-step RT-qPCR in Huh7 cells
Assay type: cell-based, human
Details: 10 nM saRNA, 72 hours, relative to control (Mock)
Procedure, shortened: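 LHPP transcript level relative to mock, normalised to the geometric mean of the HPRT1 and TBP reference genes, measured by one-step RT-qPCR on crude lysates. Huh7 cells had been RNAiMax-transfected with each saRNA at 10 nM for 72 h.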

RAG7-844: saRNA duplex; sense GGUUCCGAGGGGCCAUUGATT (SEQ ID NO: 129), antisense UCAAUGGCCCCUCGGAACCTT (SEQ ID NO: 293) (sugars from the 5' end r19 d2, backbone not given here)
Fold of changes in relative LHPP mRNA expression level: 1.17 fold
Fold of changes in relative LHPP mRNA expression level (log2): 0.22 log2

RAG7-126: saRNA duplex; sense GUCCGCUGAUCUCCUGGGATT (SEQ ID NO: 45), antisense UCCCAGGAGAUCAGCGGACTT (SEQ ID NO: 209) (sugars from the 5' end r19 d2, backbone not given here)
Fold of changes in relative LHPP mRNA expression level: 1.39 fold
Fold of changes in relative LHPP mRNA expression level (log2): 0.48 log2

RAG7-160: saRNA duplex; sense CUUAGGGACUUGUUUUCUGTT (SEQ ID NO: 153), antisense CAGAAAACAAGUCCCUAAGTT (SEQ ID NO: 317) (sugars from the 5' end r19 d2, backbone not given here)
Fold of changes in relative LHPP mRNA expression level: 1.11 fold
Fold of changes in relative LHPP mRNA expression level (log2): 0.15 log2

RAG7-151: saRNA duplex; sense UUGUUUUCUGCUUUUCCUGTT (SEQ ID NO: 100), antisense CAGGAAAAGCAGAAAACAATT (SEQ ID NO: 264) (sugars from the 5' end r19 d2, backbone not given here)
Fold of changes in relative LHPP mRNA expression level: 1.22 fold
Fold of changes in relative LHPP mRNA expression level (log2): 0.28 log2

RAG7-95: saRNA duplex; sense AAAAGGACACCGUUUCAGGTT (SEQ ID NO: 12), antisense CCUGAAACGGUGUCCUUUUTT (SEQ ID NO: 176) (sugars from the 5' end r19 d2, backbone not given here)
Fold of changes in relative LHPP mRNA expression level: 1.67 fold
Fold of changes in relative LHPP mRNA expression level (log2): 0.74 log2

RAG7-681: saRNA duplex; sense CCUCAUCUAUGCAGGGCUGTT (SEQ ID NO: 149), antisense CAGCCCUGCAUAGAUGAGGTT (SEQ ID NO: 313) (sugars from the 5' end r19 d2, backbone not given here)
Fold of changes in relative LHPP mRNA expression level: 1.13 fold
Fold of changes in relative LHPP mRNA expression level (log2): 0.17 log2

RAG7-144: saRNA duplex; sense CUGCUUUUCCUGCUCUUUGTT (SEQ ID NO: 18), antisense CAAAGAGCAGGAAAAGCAGTT (SEQ ID NO: 182) (sugars from the 5' end r19 d2, backbone not given here)
Fold of changes in relative LHPP mRNA expression level: 1.56 fold
Fold of changes in relative LHPP mRNA expression level (log2): 0.64 log2

RAG7-896: saRNA duplex; sense GCUAUGUUGGACCAGAAGUTT (SEQ ID NO: 69), antisense ACUUCUGGUCCAACAUAGCTT (SEQ ID NO: 233) (sugars from the 5' end r19 d2, backbone not given here)
Fold of changes in relative LHPP mRNA expression level: 1.30 fold
Fold of changes in relative LHPP mRNA expression level (log2): 0.38 log2

RAG7-103: saRNA duplex; sense AGCUUCCGAAAAGGACACCTT (SEQ ID NO: 72), antisense GGUGUCCUUUUCGGAAGCUTT (SEQ ID NO: 236) (sugars from the 5' end r19 d2, backbone not given here)
Fold of changes in relative LHPP mRNA expression level: 1.29 fold
Fold of changes in relative LHPP mRNA expression level (log2): 0.37 log2

RAG7-692: saRNA duplex; sense GUCCUAUGCAUCCUCAUCUTT (SEQ ID NO: 124), antisense AGAUGAGGAUGCAUAGGACTT (SEQ ID NO: 288) (sugars from the 5' end r19 d2, backbone not given here)
Fold of changes in relative LHPP mRNA expression level: 1.17 fold
Fold of changes in relative LHPP mRNA expression level (log2): 0.22 log2

RAG7-693: saRNA duplex; sense GGUCCUAUGCAUCCUCAUCTT (SEQ ID NO: 98), antisense GAUGAGGAUGCAUAGGACCTT (SEQ ID NO: 262) (sugars from the 5' end r19 d2, backbone not given here)
Fold of changes in relative LHPP mRNA expression level: 1.22 fold
Fold of changes in relative LHPP mRNA expression level (log2): 0.29 log2

RAG7-121: saRNA duplex; sense CUGAUCUCCUGGGAAGAAATT (SEQ ID NO: 52), antisense UUUCUUCCCAGGAGAUCAGTT (SEQ ID NO: 216) (sugars from the 5' end r19 d2, backbone not given here)
Fold of changes in relative LHPP mRNA expression level: 1.36 fold
Fold of changes in relative LHPP mRNA expression level (log2): 0.45 log2

RAG7-172: saRNA duplex; sense CCUUUGACCUUUCUUAGGGTT (SEQ ID NO: 81), antisense CCCUAAGAAAGGUCAAAGGTT (SEQ ID NO: 245) (sugars from the 5' end r19 d2, backbone not given here)
Fold of changes in relative LHPP mRNA expression level: 1.27 fold
Fold of changes in relative LHPP mRNA expression level (log2): 0.34 log2

RAG7-908: saRNA duplex; sense UGAAAGCUCAAAGCUAUGUTT (SEQ ID NO: 31), antisense ACAUAGCUUUGAGCUUUCATT (SEQ ID NO: 195) (sugars from the 5' end r19 d2, backbone not given here)
Fold of changes in relative LHPP mRNA expression level: 1.49 fold
Fold of changes in relative LHPP mRNA expression level (log2): 0.57 log2

RAG7-189: saRNA duplex; sense CUUCUUGUCUCAAUUUGCCTT (SEQ ID NO: 35), antisense GGCAAAUUGAGACAAGAAGTT (SEQ ID NO: 199) (sugars from the 5' end r19 d2, backbone not given here)
Fold of changes in relative LHPP mRNA expression level: 1.47 fold
Fold of changes in relative LHPP mRNA expression level (log2): 0.56 log2

RAG7-125: saRNA duplex; sense UCCGCUGAUCUCCUGGGAATT (SEQ ID NO: 55), antisense UUCCCAGGAGAUCAGCGGATT (SEQ ID NO: 219) (sugars from the 5' end r19 d2, backbone not given here)
Fold of changes in relative LHPP mRNA expression level: 1.36 fold
Fold of changes in relative LHPP mRNA expression level (log2): 0.44 log2

RAG7-107: saRNA duplex; sense AGAAAGCUUCCGAAAAGGATT (SEQ ID NO: 156), antisense UCCUUUUCGGAAGCUUUCUTT (SEQ ID NO: 320) (sugars from the 5' end r19 d2, backbone not given here)
Fold of changes in relative LHPP mRNA expression level: 1.11 fold
Fold of changes in relative LHPP mRNA expression level (log2): 0.15 log2

RAG7-847: saRNA duplex; sense AAAGGUUCCGAGGGGCCAUTT (SEQ ID NO: 34), antisense AUGGCCCCUCGGAACCUUUTT (SEQ ID NO: 198) (sugars from the 5' end r19 d2, backbone not given here)
Fold of changes in relative LHPP mRNA expression level: 1.48 fold
Fold of changes in relative LHPP mRNA expression level (log2): 0.56 log2

RAG7-726: saRNA duplex; sense GCAUUGUGAUAGUCCCGUUTT (SEQ ID NO: 127), antisense AACGGGACUAUCACAAUGCTT (SEQ ID NO: 291) (sugars from the 5' end r19 d2, backbone not given here)
Fold of changes in relative LHPP mRNA expression level: 1.17 fold
Fold of changes in relative LHPP mRNA expression level (log2): 0.22 log2

RAG7-180: saRNA duplex; sense UCAAUUUGCCUUUGACCUUTT (SEQ ID NO: 58), antisense AAGGUCAAAGGCAAAUUGATT (SEQ ID NO: 222) (sugars from the 5' end r19 d2, backbone not given here)
Fold of changes in relative LHPP mRNA expression level: 1.35 fold
Fold of changes in relative LHPP mRNA expression level (log2): 0.43 log2

RAG7-721: saRNA duplex; sense GUGAUAGUCCCGUUUUCUUTT (SEQ ID NO: 133), antisense AAGAAAACGGGACUAUCACTT (SEQ ID NO: 297) (sugars from the 5' end r19 d2, backbone not given here)
Fold of changes in relative LHPP mRNA expression level: 1.16 fold
Fold of changes in relative LHPP mRNA expression level (log2): 0.21 log2

RAG7-179: saRNA duplex; sense CAAUUUGCCUUUGACCUUUTT (SEQ ID NO: 39), antisense AAAGGUCAAAGGCAAAUUGTT (SEQ ID NO: 203) (sugars from the 5' end r19 d2, backbone not given here)
Fold of changes in relative LHPP mRNA expression level: 1.45 fold
Fold of changes in relative LHPP mRNA expression level (log2): 0.53 log2

RAG7-848: saRNA duplex; sense GAAAGGUUCCGAGGGGCCATT (SEQ ID NO: 87), antisense UGGCCCCUCGGAACCUUUCTT (SEQ ID NO: 251) (sugars from the 5' end r19 d2, backbone not given here)
Fold of changes in relative LHPP mRNA expression level: 1.25 fold
Fold of changes in relative LHPP mRNA expression level (log2): 0.32 log2

RAG7-893: saRNA duplex; sense AUGUUGGACCAGAAGUAAATT (SEQ ID NO: 14), antisense UUUACUUCUGGUCCAACAUTT (SEQ ID NO: 178) (sugars from the 5' end r19 d2, backbone not given here)
Fold of changes in relative LHPP mRNA expression level: 1.63 fold
Fold of changes in relative LHPP mRNA expression level (log2): 0.70 log2

RAG7-897: saRNA duplex; sense AGCUAUGUUGGACCAGAAGTT (SEQ ID NO: 65), antisense CUUCUGGUCCAACAUAGCUTT (SEQ ID NO: 229) (sugars from the 5' end r19 d2, backbone not given here)
Fold of changes in relative LHPP mRNA expression level: 1.31 fold
Fold of changes in relative LHPP mRNA expression level (log2): 0.39 log2

RAG7-111: saRNA duplex; sense GGGAAGAAAGCUUCCGAAATT (SEQ ID NO: 117), antisense UUUCGGAAGCUUUCUUCCCTT (SEQ ID NO: 281) (sugars from the 5' end r19 d2, backbone not given here)
Fold of changes in relative LHPP mRNA expression level: 1.18 fold
Fold of changes in relative LHPP mRNA expression level (log2): 0.24 log2

RAG7-146: saRNA duplex; sense UUCUGCUUUUCCUGCUCUUTT (SEQ ID NO: 10), antisense AAGAGCAGGAAAAGCAGAATT (SEQ ID NO: 174) (sugars from the 5' end r19 d2, backbone not given here)
Fold of changes in relative LHPP mRNA expression level: 1.69 fold
Fold of changes in relative LHPP mRNA expression level (log2): 0.76 log2
